Assay [1] has as its system human renal cancer cells CAKI-1. In words: XTT cell proliferation assay, CAKI-1. The format is cell-based. The following applies: 5 days incubation, read-out: Antiproliferative activity, Kidney CAKI-1. As to the method:
(§1) Exemplary compounds 1-8 were tested for anti-cancer activity in vitro using human renal cancer cells (ACHN and CAK-1), human pancreatic cells (BXPC3 and SU-86-86), human prostate cancer cell (DU14), human colon carcinoma cells (HT-29 and KM-12), leukemia cells (HL60), brain cancer/tumour cells (SK-A-AS, U87-MG), and human non-small cell lung cancer cells (H460). Compounds 1-8 are the specific embodiments of Formula (I) and Formula (IV) as described above in this application.
(§2) The cells were maintained as a monolayer in a growth medium; McCoy's 5A modified medium (Sigma, St. Louis, Mo.), supplemented with 2 mM L-glutamine (Gibco, Grand Island, N.Y.), 10% fetal bovine serum (FBS) (Multicell, WISENT Inc. St-Bruno, QC), antibiotic-antimycotic (Multicell), at 37° C. in a 5% CO2-humidified incubator. Cells were transferred onto 150 mm tissue culture plates and grown until sub-confluency (70-80%) prior to their use. The in vitro antiproliferative activity of compounds was evaluated by incubating the cells with varying concentrations of exemplary compounds as shown in Table 1 for 5 days. The efficacy of these compounds in this cell proliferation assay was measured based in the ability of live cells to reduce the tetrazolium salt XTT to orange colored compounds of formazan (XTT cell proliferation kit IT, Roche Applied Science, Montreal, QC).
(Tetrazolium dyes change colour on reduction, which living cells bring about.)

For assay [2], the system named is non-small cell lung cancer cells HOP-62. In words: XTT cell proliferation assay, HOP-62. The following applies: 5 days incubation, read-out: Antiproliferative activity, NSCLC HOP-62. The assay is classed as cell-based, human. Here is the method: [The procedure below names another cell line; the source lists this cell line under the same test.] as §1, §2
Assay [3] concerns non-small cell lung cancer cells EKVX. In words: XTT cell proliferation assay, EKVX. The format is cell-based, human. The following applies: 5 days incubation, read-out: Antiproliferative activity, NSCLC EKVX. Here is the method:
[The procedure below names another cell line; the source lists this cell line under the same test.] as §1, §2

Assay [4] has as its system human Burkitt's lymphoma Ramos cells. The assay is described as follows: Cell growth inhibition assay, Ramos. The assay is classed as cell-based. As to conditions: five days of incubation, XTT; read-out: IC50 Ramos (hs). Here is the method: (§3) In this study, compounds 1-8 were screened in vitro against a panel of four mouse lymphoma cell lines and two human lymphoma cell line for cell growth inhibition activity. Following treatment, half maximal inhibitory concentrations (IC50) were determined with the objective of selecting the most efficacious compounds for evaluation of in vitro absorption, distribution, metabolism, and excretion (ADME) screening.
(§4) Similarly, human Burkitt's lymphoma Ramos cells (ATCC CRL-1596) were grown in suspension in Roswell Park Memorial Institute (RPMI) 1640 medium supplemented with 10% fetal bovine serum (FBS), 10 mM HEPES KOH pH 7.4, and 2 mM sodium pyruvate. Mouse P388D1 (ATCC CCL-46) and WR19L (ATCC TIB-52) cells were grown in suspension in Dulbecco's Modified Eagle Medium (DMEM) with 10% fetal bovine serum (FBS), 10 mM HEPES, and 2 mM sodium pyruvate. Mouse WEHI231 (ATCC CRL-1702) and EL4 (ATCC TIB-39) cells were grown in suspension in DMEM with 10% fetal bovine serum (FBS), 10 mM HEPES KOH pH 7.4, 2 mM sodium pyruvate, and 0.05 mM β-mercaptoethanol. All cells were maintained at 37° C. in an atmosphere of 5% CO2 in air. Logarithmically growing cells were routinely sub-cultured twice weekly. Briefly, cells were collected by centrifugation, resuspended in pre-warmed media, and diluted 1:10 into a 75 cm^2 flask.
(§5) Cells were subcultured and 4×10^3 cells (in 50 μL) were transferred to each well in a Falcon 96-well tissue culture plate. Exemplary compounds were dissolved in pure dimethyl sulphoxide (DMSO) at a concentration of 10 mM. From this 10 mM stock solution, 12 successive serial dilutions were made in DMSO (2.5 fold dilutions), ranging from 0.52 μM to 10 mM. Using these stock dilutions, 5 μL of each were added to 500 μL of media, and 50 μL of this was added to the cells. The final concentrations being tested ranged from 0.0026 μM to 50 μM. Each concentration was tested in triplicate, and DMSO and untreated cells were also included as controls. After five days of incubation with the compounds, cell viability was determined using the XTT cell proliferation kit (Roche, Cat. No. 11 465 015 001). Following the XTT protocol, 4.5-24 hours after addition of the reagent, the plates were read in a μQuant 96-well plate spectrophotometer (Biotek Instruments Inc.) and the results analyzed to determine the IC50.

The subject of assay [5] is WEHI 231 (mouse, B-cell lymphoma). The assay is described as follows: Cell growth inhibition assay, WEHI231. The format is cell-based. The following applies: five days of incubation, XTT; read-out: IC50 WEHI231 (ms). As to the method: as §3, §4, §5
In assay [6] the test system is human colon adenocarcinoma cells HT-29. In words: Colon carcinoma (HT-29) xenograft model. As to conditions: 50 mg/kg/d, five days on, 2 day break, 5 weeks, vs vehicle-treated control, FIG. 1. The assay is classed as in vivo, CD-1 female nude mice. Here is the method: (§6) The ability of compound 1 to inhibit colon tumour growth in vivo was tested as follows. CD-1 female nude mice (7 mice per treatment group, 6-7 weeks) were injected […] with human colon adenocarcinoma cells HT-29 cells (3×10^6 cells in 0.1 ml PBS). Treatment of the mice with vehicle or 50 mg/kg/d of […] was initiated 5 days post-inoculation (size of tumours=20-40 mm^3) for 7-day cycles of five days followed by a 2 day break for 5 weeks. The size of the tumours was measured over the course of the experiment using calipers, and the weight of the tumours was measured after the animals were sacrificed.

In assay [7] the test system is colon carcinoma KM-12 cells. In words: Colon carcinoma (KM-12) xenograft model. The assay is classed as in vivo, CD-1 female nude mice. As to conditions: vs vehicle-treated control, FIG. 2. Here is the method:
as §6
Similar tests were conducted with colon carcinoma KM-12 cells and colon carcinoma SW-620 cells.

Each structure is given as a SMILES string.

Consider `FC1(F)Oc2ccc(-c3nc4c5cccnc5c5ncccc5c4[nH]3)cc2O1` [Compound 1], for which the IC50 in assay [1] is 156 nM; in assay [2] it was 210 nM; in assay [3] it was 220 nM; in assay [4] it was 163 nM; in assay [5], 5.2 nM. Moreover, the “inhibition of tumour growth, as measured by tumour size” value in assay [6] and in assay [7] was “able to inhibit tumour growth” throughout.

Values taken from US9309247B2, “2-substituted imidazo[4,5-D]phenanthroline derivatives and their use in the treatment of cancer” (Aptose Biosciences Inc., priority 2013, dated 2016).
